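Results reflect a 48-hour exposure of cells in 96-well plates to compound at five concentrations. GI50 marks 50% less growth.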 Active and inactive are the calls of the source. Cut-off read from the data, not from the text of the source: active = GI50 up to about 1.1 µM and inactive = higher.

The source of these data is ChEMBL document CHEMBL1201862, “PubChem BioAssay data set” (2004).

Holding throughout (assay): NCI tumour cell line growth inhibition, 48 h
Experiment [1] relates to OVCAR-4.
The test system of experiment [2] is OVCAR-3.
The subject of experiment [3] is U-251.
The subject of experiment [4] is COLO 205.
Experiment [5] deals with HL-60.
The test system of experiment [6] is M14.
The test system of experiment [7] is SK-MEL-5.
The test system of experiment [8] is IGROV-1.
Experiment [9] concerns NCI-H226.
In experiment [10] the test system is HCT-15.
In experiment [11] the test system is RPMI-8226.
The subject of experiment [12] is NCI-H460.
In experiment [13] the test system is UO-31.
The subject of experiment [14] is SF-539.
The subject of experiment [15] is HT-29.
The test system of experiment [16] is Malme-3M.
Experiment [17] relates to RXF 393.
The subject of experiment [18] is A498.

As to `CCOC(=O)C1C(=O)c2ccccc2CN1Cc1ccccc1` (stereo unspecified), the GI50 in experiment [1], in experiment [2], in experiment [3], in [4], in experiment [5] and in experiment [6] was > 100 µM (inactive) throughout. Moreover, the GI50 in [7] was > 100 µM (inactive); in [8] it was > 100 µM (inactive); in experiment [9] it was > 100 µM (inactive); in [10], > 100 µM; in experiment [11], > 100 µM (inactive); in experiment [12], > 100 µM (inactive). In addition, the GI50 in experiment [13], in experiment [14], in experiment [15] and in [16] was > 100 µM (inactive) throughout.

With `Cc1ccc(Nc2nc(C)c(C(/C=C/c3ccc(/C=C/C(=N/NC(=O)C[n+]4ccccc4)c4sc(Nc5ccc(C)cc5[N+](=O)[O-])nc4C)cc3)=N\NC(=O)C[n+]3ccccc3)s2)c([N+](=O)[O-])c1`, the GI50 in [1] was > 100 µM (inactive); in [2], > 100 µM (inactive); in experiment [17], > 100 µM (inactive); in experiment [3], > 100 µM (inactive); in experiment [4] it was > 100 µM (inactive); in experiment [5], 27.4 µM (inactive). In addition, the GI50 in experiment [6] was > 100 µM (inactive); in experiment [8], > 100 µM (inactive); in [9], 14.6 µM (inactive); in experiment [10] it was 88.1 µM; in experiment [12], > 100 µM (inactive); in experiment [13], 46.5 µM (inactive). Besides, the GI50 in experiment [14] was 89.1 µM (inactive); in [15] it was > 100 µM (inactive); in [16] it was > 100 µM (inactive).

As for `NCCNCc1c2ccccc2c(CNCCN)c2ccccc12`, the GI50 in experiment [18] is 22.3 µM (inactive); in experiment [1] it was > 10 µM (inactive); in [2], 18.2 µM (inactive); in experiment [17], 15.7 µM (inactive); in [3], 22 µM (inactive); in experiment [4], 8.17 µM (inactive). For the same molecule, the GI50 is 20.4 µM (inactive) in experiment [5]; 16.3 µM (inactive) in experiment [6]; 26.4 µM (inactive) in experiment [7]; 32.3 µM (inactive) in experiment [8]; 38 µM in [10]; 6.97 µM (inactive) in experiment [12]. The GI50 in experiment [13] is 49.4 µM (inactive); in experiment [14], 12.2 µM (inactive); in experiment [15], 6.21 µM (inactive); in experiment [16] it was 14 µM (inactive).

For `O=S(=O)(C1=CC(S(=O)(=O)c2ccccc2)COC1)c1ccccc1` (stereo unspecified), the GI50 in experiment [1], in [2], in experiment [17], in [3], in experiment [4] and in [5] was > 100 µM (inactive) throughout. Also, the GI50 is > 100 µM (inactive) in experiment [6]; > 100 µM (inactive) in [8]; > 100 µM in experiment [10]; > 100 µM (inactive) in experiment [11]; > 100 µM (inactive) in experiment [12]; > 100 µM (inactive) in experiment [13]. Moreover, the GI50 in experiment [14], in experiment [15] and in [16] was > 100 µM (inactive) in each case.

On to `O=C1c2cnccc2Cc2cccc3c2N1c1ccccc1S3`, for which the GI50 in [18] was 20.7 µM (inactive); in [1] it was 21.5 µM (inactive); in [2] it was 17.7 µM (inactive); in experiment [17] it was 21.6 µM (inactive); in experiment [3], 16.6 µM (inactive); in experiment [4] it was 27.4 µM (inactive). For the same molecule, the GI50 in [5] is 21.1 µM (inactive); in experiment [6], 24.3 µM (inactive); in experiment [7] it was 17.9 µM (inactive); in [8], 28 µM (inactive); in experiment [10] it was 23.3 µM; in [11], 20.6 µM (inactive). The GI50 is 20.6 µM (inactive) in experiment [14], 23.9 µM (inactive) in [15] and 24.7 µM (inactive) in experiment [16].

As for `COc1cc(C2=NN(C)C(c3ccc([N+](=O)[O-])o3)C2)cc(OC)c1OC` (stereo unspecified), the GI50 was > 100 µM (inactive) in experiment [18]; 91.4 µM (inactive) in [1]; 56.8 µM (inactive) in experiment [3]; 36.9 µM (inactive) in experiment [4]; 18.2 µM (inactive) in experiment [5]; 53.8 µM (inactive) in [6]. For the same molecule, the GI50 in experiment [7] was > 100 µM (inactive); in experiment [8], > 100 µM (inactive); in [9], > 100 µM (inactive); in experiment [10] it was 18.2 µM; in experiment [11] it was 1.78 µM (inactive); in experiment [12] it was 41.9 µM (inactive). In addition, the GI50 is 72.1 µM (inactive) in experiment [13], 49.7 µM (inactive) in experiment [14], 72.4 µM (inactive) in experiment [15] and > 100 µM (inactive) in [16].

`COc1ccc(NC(=O)CC(=O)NN2C(=O)/C(=C/c3ccc(N(CCC#N)CCC#N)cc3C)N=C2/C=C\c2ccccc2)cc1`: the GI50 in experiment [18], in experiment [1], in [2], in experiment [3], in experiment [4] and in experiment [5] was > 100 µM (inactive) throughout. Besides, the GI50 is > 100 µM (inactive) in experiment [6]; > 100 µM (inactive) in [7]; > 100 µM (inactive) in experiment [8]; > 100 µM (inactive) in [9]; > 100 µM in experiment [10]; > 100 µM (inactive) in [11]. The GI50 in experiment [12], in experiment [13], in experiment [14], in experiment [15] and in [16] was > 100 µM (inactive) in each case.

On to `Fc1ccc(C2SCc3nc4ccccc4n32)cc1` (stereo unspecified), for which the GI50 is 36.3 µM (inactive) in experiment [1]; 24.4 µM (inactive) in experiment [2]; 17.2 µM (inactive) in experiment [17]; 51.3 µM (inactive) in experiment [3]; 57 µM (inactive) in experiment [4]; 22.3 µM (inactive) in experiment [5]. The GI50 is 43.3 µM (inactive) in experiment [6]; 15.8 µM (inactive) in experiment [7]; 47.9 µM (inactive) in experiment [8]; 37.4 µM (inactive) in experiment [9]; 34.8 µM in experiment [10]; 26.4 µM (inactive) in experiment [11]. The GI50 in experiment [12] is 34.4 µM (inactive); in experiment [13], 23 µM (inactive); in experiment [14], > 100 µM (inactive); in [15] it was 47.9 µM (inactive); in experiment [16], 25.8 µM (inactive).

As to `Cc1cc(C)c(C(=O)O)c(N)c1O`, the GI50 in [18], in experiment [1], in experiment [2], in experiment [17], in experiment [3] and in experiment [4] was > 100 µM (inactive) in each case. Moreover, the GI50 in experiment [5] was > 100 µM (inactive); in experiment [6] it was > 100 µM (inactive); in experiment [7], > 100 µM (inactive); in experiment [8] it was > 100 µM (inactive); in experiment [9] it was > 100 µM (inactive); in experiment [10], > 100 µM. Further, the GI50 in experiment [11], in experiment [13], in experiment [15] and in experiment [16] was > 100 µM (inactive) in each case.

Turning to `Cc1cccc(C)c1N1C(=O)C(=O)C(c2nc3ccccc3s2)/C(=N/c2cccc3c(=O)[nH][nH]c(=O)c23)C1=O` (stereo unspecified), the GI50 is > 100 µM (inactive) in experiment [18]; 79.3 µM (inactive) in experiment [1]; > 100 µM (inactive) in experiment [2]; 83 µM (inactive) in [3]; 41.5 µM (inactive) in [4]; 71.3 µM (inactive) in experiment [5]. The GI50 in experiment [6] is > 100 µM (inactive); in [7], > 100 µM (inactive); in experiment [8] it was > 100 µM (inactive); in experiment [9], > 100 µM (inactive); in [10], > 100 µM; in [11], > 100 µM (inactive). The GI50 in [12], in experiment [13], in experiment [14], in experiment [15] and in experiment [16] was > 100 µM (inactive) throughout.

For the molecule `COc1ccc(OC)c(-c2cc(O)c3cc4c(cc3n2)OCO4)c1`, the GI50 in experiment [1] was 35.6 µM (inactive); in experiment [2], 3.93 µM (inactive); in experiment [17], 2.99 µM (inactive); in [3] it was 7.59 µM (inactive); in experiment [4] it was 2.65 µM (inactive); in experiment [5], 2.96 µM (inactive). Moreover, the GI50 was 3.94 µM (inactive) in [6]; 2.98 µM (inactive) in experiment [7]; 10.5 µM (inactive) in experiment [8]; 7.38 µM (inactive) in experiment [9]; 4.22 µM in experiment [10]; 4.18 µM (inactive) in [11]. Moreover, the GI50 in [12] is 3.41 µM (inactive); in experiment [13] it was 19.8 µM (inactive); in experiment [14] it was 5.7 µM (inactive); in [15], 4.12 µM (inactive); in experiment [16] it was 3.49 µM (inactive).

As to `CC(C)C12Cc3c(ccc4ccccc34)OC1(C)Oc1ccc3ccccc3c1C2` (stereo unspecified), the GI50 was > 100 µM (inactive) in [1]; 59.7 µM (inactive) in [2]; > 100 µM (inactive) in [17]; > 100 µM (inactive) in experiment [3]; > 100 µM (inactive) in [4]; > 100 µM (inactive) in [6]. The GI50 in experiment [7], in experiment [8], in experiment [9], in experiment [12], in experiment [13] and in [14] was > 100 µM (inactive) throughout. For the same molecule, the GI50 in experiment [15] and in [16] was > 100 µM (inactive) each time.
